Test results taken from patent US11149049B2, “Substituted nucleosides, nucleotides and analogs thereof” (JANSSEN BIOPHARMA, INC., priority 2017, dated 2021).
Like-named read-outs stand apart in the source and are kept apart here.

Tests used:
Human rhinovirus 1B = test: Rhinovirus antiviral assay (HRV1B); assay type: cell-based; settings: Rhinovirus A, 96 h
in vitro [1] = settings: human
[2] = Cytotoxicity in the DENV assay, uninfected parallel cultures; settings: human
Ebola minigenome = test: microbe, parasite or virus in culture; assay type: cell-based; settings: Zaire ebolavirus, HEp-2, 48 h, read-out: EBOV EC50, HEp-2 cells, Ebola minigenome, 48 hours
in vitro [3] = settings: human; remark: listed apart in the source
RSV replicon = test: microbe, parasite or virus in culture; assay type: cell-based; settings: human respiratory syncytial virus, 168 h, read-out: RSV EC50, HeLa-derived RSV replicon cells, 7 days, luciferase
[4] = Cytotoxicity in the coronavirus assay, uninfected parallel cultures; assay type: cell-based; settings: human, read-out: OC43CoV CC50
Description: (§1) The human β-coronavirus strain OC43 was purchased from ATCC (Manassas, Va.; item numbers VR-1558 and VR-740, respectively). 24 hours prior to dosing, HeLa human cervix epithelial cells (ATCC, CCL-2) or MRC-5 human lung fibroblast (ATCC, CCL-171) were plated in 96 well plates at a density of 1.5×10^5/ml in DMEM medium supplemented with 10% fetal bovine serum, 1% HEPES buffer, 1% Penicillin/Streptomycin and 1% non-essential amino acids (all Mediatech, Manassas, Va.). At the day of infection, serially diluted compounds were added to cells and incubated for 4 hours. After the end of the 4 hour pre-incubation period, cells were infected with either coronavirus strain OC43 or 229E. The virus inoculum was selected to cause 80-90% cytopathic effect. Infected cells were incubated for five days at 37° C., 5% CO2. To develop the assay, 100 μl media was replaced with 100 μl CellTiter-Glo® reagent (Promega, Madison, Wis.), and incubated for 10 min at room temperature. Luminescence was measured on a Victor X3 multi-label plate reader. Potential compound cytotoxicity was determined using uninfected parallel cultures.

[5] = system: human β-coronavirus strain OC43; test: Coronavirus antiviral assay (OC43); assay type: cell-based; settings: Betacoronavirus 1, OC43, 120 h; HeLa or MRC-5 cells, five days, CellTiter-Glo; read-out: OC43CoV EC50
Description: as §1

[6] = system: Dengue virus type 2 NG-C or Dengue virus type 4 H241; test: Dengue antiviral assay (DENV); assay type: cell-based; settings: Huh-7.5 cells, five to six days, CellTiter-Glo
Description: The Dengue virus type 2 strain New Guniea C (NG-C) and the Dengue virus type 4 strain H241 were purchased from ATCC (Manassas, Va.; item numbers VR-1584 and VR-1490, respectively). 24 hours prior to dosing, Huh-7.5 cells were plated in 96 well plates at a density of 1.5×10^5/ml in DMEM medium supplemented with 10% fetal bovine serum, 1% HEPES buffer, 1% Penicillin/Streptomycin and 1% non-essential amino acids (all Mediatech, Manassas, Va.). At the day of infection, serially diluted compounds were added to cells and incubated for 4 hours. After the end of the 4 hour pre-incubation period, cells were infected with either Dengue virus type 2 NG-C or Dengue virus type 4 H241. The virus inoculum was selected to cause 80-90% cytopathic effect in five to six days. Infected cells were incubated for five (NG-C) to six (H241) days at 37° C., 5% CO2. To develop the assay, 100 μl media was replaced with 100 μl CellTiter-Glo® reagent (Promega, Madison, Wis.), and incubated for 10 min at room temperature. Luminescence was measured on a Victor X3 multi-label plate reader. Potential compound cytotoxicity was determined using uninfected parallel cultures.

[7] = Cell viability (CC50) in the RSV replicon assay; settings: human, HeLa-derived cells containing the stable RSV replicon, CellTiter-Glo
Huh-7.5 cells = test: Cytotoxicity in the DENV assay, uninfected parallel cultures; settings: read-out: DENV CC50; uninfected Huh-7.5 parallel cultures
[8] = Toxicity (CC50) in the HRV1B assay; settings: human

| Structure (SMILES) | EC50 (Human rhinovirus 1B; HeLa-OHIO cells, 4 d, CellTiter-Glo, read-out: HRV 1B EC50) | CC50 at 4 d (in vitro [1]) | CC50 [2] | EC50 (Ebola minigenome) | CC50 (in vitro [3]) | EC50 (RSV replicon) | CC50 at 5 days [4] | EC50 [5] | EC50 ([6]; Dengue virus, Huh7.5, 144 h) | EC50 (Human rhinovirus 1B; read-out: HRV 1B EC50, HeLa-OHIO cells, 4 d, CellTiter-Glo) | CC50 at 7 days [7] | CC50 (Huh-7.5 cells) | CC50 ([2]; DENV CC50, uninfected Huh-7.5 parallel cultures) | CC50 at 4 d [8] | EC50 [6] |
| --- | --- | --- | --- | --- | --- | --- | --- | --- | --- | --- | --- | --- | --- | --- | --- |
| CCC(CC)COC(=O)[C@@H](C)NP(=O)(OC[C@H]1O[C@@](C#N)(c2ccc3c(N)ncnn23)[C@H](O)[C@@H]1O)Oc1ccccc1 (stereo partly drawn) [Compound C1, reference compound] | 120 nM | 6000 nM | 22000 nM | 800 nM | 51000 nM | 20 nM | 69000 nM | 65 nM | 130 nM | – | – | – | – | – | – |
| CC(C)OC(=O)[C@H](C)NP(=O)(OC[C@@]1(F)O[C@@](C#N)(c2ccc3c(N)ncnn23)[C@H](O)[C@@H]1O)Oc1ccccc1 (stereo partly drawn) [Compound 6, Isopropyl ((((2S,3S,4R,5R)-5-(4-aminopyrrolo[2,1-f][1,2,4]triazin-7-yl)-5-cyano-2-fluoro-3,4-dihydroxytetrahydrofuran-2-yl)methoxy)(phenoxy)phosphoryl)-L-alaninate] | – | – | – | 2500 nM | > 100000 nM | 20 nM | > 100000 nM | 1700 nM | 250 nM | 4100 nM | 43000 nM | 69000 nM | 78000 nM | > 100000 nM | 330 nM |
